Results published in paper PMC7997032, “Organic synthesis and anti-influenza A virus activity of cyclobakuchiols A, B, C, and D” (PLoS ONE, 2021).
“And” between values parts separate entries of the source, which are not always exact repeats. Equal entries are not always repeated.

Tested on: MDCK cells
Assay: MTT assay (cytotoxicity against MDCK cells)
Type: cell-based, canine
Conditions: MDCK cells; for MTT, DMSO as 100 (DMSOを 100として), ave / MTT 72h AVE (DMSO = 100): 72h; for MTT, DMSO as 100 (DMSOを 100として), ave: mean of 5 wells (200409 #1 and #3); for MTT 72h AVE (DMSO = 100): summary AVE; for MTT 24h, AVE (DMSO as 100) / MTT 24h, 570-650nm, DMSO as 100, ave: mean of 5 wells from 3 experiments; for MTT 24h, AVE (DMSO as 100): relative to DMSO = 100; for MTT 24h, 570-650nm, DMSO as 100, single replicate: individual wells (200331; 200403 #2 1,2; 200403 #3 1,2); for 570-650nm (MTT absorbance, single wells) / 570-650nm ave (mean MTT absorbance of 5 wells) / MTT absorbance with DMSO as 100 (DMSOを 100として), single wells: MTT 72h; for 570-650nm (MTT absorbance, single wells): experiments #1-#3, duplicate wells; for MTT absorbance with DMSO as 100 (DMSOを 100として), single wells: relative to mean of DMSO
Procedure: 1–5 (0.8–100 μM) were prepared in DMSO (100 μM, 1%; 50 μM, 0.5%; 25 μM, 0.25%; 12.5 μM, 0.125%; 6.3 μM, 0.063%; 3.1 μM, 0.031%; 1.6 μM, 0.016%; 0.8 μM, 0.008%) and mixed with infection medium (DMEM supplemented with 1% bovine serum albumin (BSA; Wako), P/S and 4 mM L-glutamine). The resulting mixture was added to the cells and incubated for 24 or 72 h at 37°C in the presence of 5% CO2. After incubation, cell viability was determined using an MTT cell count kit (Nacalai Tesque) according to the manufacturer’s instructions, as previously described.

[1] = 3.13uM (3.125uM in summary block)

Row | SMILES | MTT, DMSO as 100 (DMSOを 100として), ave (0.78uM) | MTT, DMSO as 100 (DMSOを 100として), ave (1.56uM) | MTT, DMSO as 100 (DMSOを 100として), ave (3.125uM) | MTT 72h AVE (DMSO = 100) (6.25 (uM)) | MTT 72h AVE (DMSO = 100) (12.5 (uM)) | MTT 72h AVE (DMSO = 100) (25 (uM)) | MTT 72h AVE (DMSO = 100) (50 (uM)) | MTT 72h AVE (DMSO = 100) (100 (uM)) | MTT 24h, AVE (DMSO as 100) (0.78 uM) | MTT 24h, AVE (DMSO as 100) (1.56 uM) | MTT 24h, 570-650nm, DMSO as 100, single replicate (3.125uM) | MTT 24h, 570-650nm, DMSO as 100, ave (3.125uM) | MTT 24h, 570-650nm, DMSO as 100, single replicate (6.25uM) | MTT 24h, 570-650nm, DMSO as 100, ave (6.25uM) | MTT 24h, 570-650nm, DMSO as 100, single replicate (12.5uM) | MTT 24h, 570-650nm, DMSO as 100, ave (12.5uM) | MTT 24h, 570-650nm, DMSO as 100, single replicate (25uM) | MTT 24h, 570-650nm, DMSO as 100, ave (25uM) | MTT 24h, 570-650nm, DMSO as 100, single replicate (50uM) | MTT 24h, 570-650nm, DMSO as 100, ave (50uM) | also measured
1 | C=C[C@]1(C)CC[C@@H](C(=C)C)[C@H](c2ccc(O)cc2)C1 [Cyclo. B] | 97.4368 | 107.487 | 135.205 | 152.012 | 128.856 | 133.275 | 92.332 | 27.1545 | 105.371 | 93.7053 | 97.7259 and 87.8578 and 108.85 and 106.215 and 84.4914 | 97.028 | 100.056 and 92.1514 and 106.191 and 111.594 and 90.247 | 100.048 | 100.027 and 92.2079 and 111.97 and 107.481 and 100.019 | 102.341 | 93.3176 and 99.811 and 119.964 and 115.104 and 108.65 | 107.369 | 101.366 and 118.852 and 85.3652 and 130.523 and 116.385 | 110.498 | MTT 24h, 570-650nm, DMSO as 100, single replicate (100uM): 120.469 and 116.882 and 135.616 and 105.182 and 78.3439; MTT 24h, 570-650nm, DMSO as 100, ave (100uM): 111.299; 570-650nm (MTT absorbance, single wells) (0.78uM): 1.0803 and 0.7822 and 0.6986 and 0.7618 and 0.6844 and 0.8059; 570-650nm (MTT absorbance, single wells) (1.56uM): 0.9938 and 0.9382 and 0.7725 and 0.5035 and 0.9217 and 0.7676; 570-650nm (MTT absorbance, single wells) [1]: 0.8489 and 0.8759 and 0.9309 and 0.9208 and 0.9982 and 0.8279; 570-650nm ave (mean MTT absorbance of 5 wells) (6.25uM): 1.04; 570-650nm (MTT absorbance, single wells) (6.25uM): 0.8643 and 1.0571 and 1.004 and 1.1478 and 1.1256 and 0.8768; MTT absorbance with DMSO as 100 (DMSOを 100として), single wells (6.25uM): 154.547 and 146.784 and 167.807 and 164.561 and 126.36; 570-650nm ave (mean MTT absorbance of 5 wells) (12.5uM): 1.026; 570-650nm (MTT absorbance, single wells) (12.5uM): 1.0196 and 0.9592 and 1.0242 and 0.9589 and 1.0117 and 1.1742; MTT absorbance with DMSO as 100 (DMSOを 100として), single wells (12.5uM): 120.471 and 128.675 and 147.52 and 127.104 and 120.509; 570-650nm ave (mean MTT absorbance of 5 wells) (25uM): 1.002; 570-650nm ave (mean MTT absorbance of 5 wells) (50uM): 0.8426; 570-650nm ave (mean MTT absorbance of 5 wells) (100uM): 0.2557; 570-650nm (MTT absorbance, single wells) (100uM): 0.2419 and 0.2859 and 0.234 and 0.2603 and 0.2251 and 0.273; MTT absorbance with DMSO as 100 (DMSOを 100として), single wells (100uM): 27.6474 and 24.854 and 28.9963 and 23.9087 and 30.3664
2 | C=C[C@]1(C)CC[C@H](C(C)(C)O)[C@@H](c2ccc(O)cc2)C1 [Cyclo. C] | 97.7369 | 116.194 | 124.106 | 130.219 | 123.122 | 141.455 | 116.495 | 142.83 | 97.4262 | 89.4582 | 98.8583 and 80.6936 and 68.9227 and 107.532 and 92.5261 | 89.7067 | 105.442 and 92.9243 and 77.243 and 111.801 and 97.5139 | 96.9849 | 112.407 and 88.505 and 78.5484 and 110.111 and 102.316 | 98.3774 | 89.9468 and 93.8621 and 86.7762 and 109.435 and 109.619 | 97.9279 | 107.424 and 104.395 and 78.3927 and 112.047 and 113.734 | 103.198 | MTT 24h, 570-650nm, DMSO as 100, single replicate (100uM): 113.671 and 119.568 and 104.628 and 127.474 and 126.723; MTT 24h, 570-650nm, DMSO as 100, ave (100uM): 118.413; 570-650nm (MTT absorbance, single wells) (0.78uM): 0.9938 and 0.7395 and 0.7311 and 0.6372 and 0.8862 and 0.7504; 570-650nm (MTT absorbance, single wells) (1.56uM): 0.9464 and 0.9776 and 0.7533 and 0.5791 and 0.9528 and 0.9569; 570-650nm (MTT absorbance, single wells) [1]: 0.9669 and 0.8575 and 0.7479 and 0.8256 and 0.9 and 0.8489; 570-650nm ave (mean MTT absorbance of 5 wells) (6.25uM): 0.8907; 570-650nm (MTT absorbance, single wells) (6.25uM): 0.8518 and 0.8346 and 0.7398 and 1.0173 and 1.01 and 0.9632; MTT absorbance with DMSO as 100 (DMSOを 100として), single wells (6.25uM): 122.018 and 108.158 and 148.728 and 147.661 and 124.532; 570-650nm ave (mean MTT absorbance of 5 wells) (12.5uM): 0.98; 570-650nm (MTT absorbance, single wells) (12.5uM): 0.9561 and 0.8827 and 0.8467 and 1.0013 and 1.1241 and 1.0452; MTT absorbance with DMSO as 100 (DMSOを 100として), single wells (12.5uM): 125.798 and 106.375 and 131.313 and 141.226 and 110.898; 570-650nm ave (mean MTT absorbance of 5 wells) (25uM): 1.064; 570-650nm (MTT absorbance, single wells) (25uM): 0.9926 and 0.9592 and 0.9724 and 1.0619 and 1.1012 and 1.2247; MTT absorbance with DMSO as 100 (DMSOを 100として), single wells (25uM): 141.191 and 129.291 and 162.837 and 146.417 and 127.536; 570-650nm ave (mean MTT absorbance of 5 wells) (50uM): 1.063; 570-650nm (MTT absorbance, single wells) (50uM): 1.1675 and 1.0763 and 1.0296 and 0.8397 and 1.1252 and 1.245; MTT absorbance with DMSO as 100 (DMSOを 100として), single wells (50uM): 92.0098 and 112.818 and 136.42 and 123.293 and 117.935; 570-650nm ave (mean MTT absorbance of 5 wells) (100uM): 1.345; 570-650nm (MTT absorbance, single wells) (100uM): 1.4551 and 1.3837 and 1.3254 and 1.1438 and 1.3954 and 1.4754; MTT absorbance with DMSO as 100 (DMSOを 100として), single wells (100uM): 121.487 and 140.775 and 156.707 and 148.21 and 146.968
